US20260327211A1, “MODULATORS OF A POTASSIUM CHANNEL AND OF TRPV1 CHANNEL AND USES THEREOF” (Bsense Bio Therapeutics Ltd., priority 2023, published 2026)
≈ marks a conversion by molar mass, not a printed value. Where two headings read alike, the source gives them in different places.

Columns and labels:
hKv7.2/3 = molecular target: T1, hKv7.2/3 (Homo sapiens, UniProt O43525+O43526); experiment: Kv7.2/7.3 HCS, FLIPR potassium (thallium) assay, CHO/hKv7.2/3; type: cell-based; settings: for EC50: Table 1, read-out: Kv7.2/7.3 IC50
T1 construct: host or cells: CHO
T1 sequence (O43525 whole entry): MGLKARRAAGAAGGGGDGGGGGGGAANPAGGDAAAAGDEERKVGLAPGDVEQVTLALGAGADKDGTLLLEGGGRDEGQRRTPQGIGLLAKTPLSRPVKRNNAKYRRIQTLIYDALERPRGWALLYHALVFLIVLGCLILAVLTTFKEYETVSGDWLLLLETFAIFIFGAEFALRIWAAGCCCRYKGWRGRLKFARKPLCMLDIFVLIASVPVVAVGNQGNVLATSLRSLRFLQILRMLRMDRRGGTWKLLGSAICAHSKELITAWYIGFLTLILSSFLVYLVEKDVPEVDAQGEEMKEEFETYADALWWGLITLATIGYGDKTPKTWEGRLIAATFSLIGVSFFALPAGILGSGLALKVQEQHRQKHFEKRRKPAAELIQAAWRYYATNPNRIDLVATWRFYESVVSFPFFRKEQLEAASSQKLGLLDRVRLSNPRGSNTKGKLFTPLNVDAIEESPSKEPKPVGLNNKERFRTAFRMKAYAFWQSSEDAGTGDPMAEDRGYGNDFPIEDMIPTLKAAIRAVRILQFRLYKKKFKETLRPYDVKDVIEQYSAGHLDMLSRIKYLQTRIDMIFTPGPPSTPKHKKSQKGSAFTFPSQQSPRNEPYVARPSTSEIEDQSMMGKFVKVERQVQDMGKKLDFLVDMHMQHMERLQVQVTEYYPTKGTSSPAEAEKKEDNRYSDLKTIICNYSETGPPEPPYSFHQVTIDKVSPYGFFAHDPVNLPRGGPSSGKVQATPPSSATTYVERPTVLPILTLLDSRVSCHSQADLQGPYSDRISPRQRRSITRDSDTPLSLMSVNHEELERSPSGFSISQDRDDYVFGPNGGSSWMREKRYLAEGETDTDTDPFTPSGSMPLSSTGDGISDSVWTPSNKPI
T1 sequence (O43526 whole entry): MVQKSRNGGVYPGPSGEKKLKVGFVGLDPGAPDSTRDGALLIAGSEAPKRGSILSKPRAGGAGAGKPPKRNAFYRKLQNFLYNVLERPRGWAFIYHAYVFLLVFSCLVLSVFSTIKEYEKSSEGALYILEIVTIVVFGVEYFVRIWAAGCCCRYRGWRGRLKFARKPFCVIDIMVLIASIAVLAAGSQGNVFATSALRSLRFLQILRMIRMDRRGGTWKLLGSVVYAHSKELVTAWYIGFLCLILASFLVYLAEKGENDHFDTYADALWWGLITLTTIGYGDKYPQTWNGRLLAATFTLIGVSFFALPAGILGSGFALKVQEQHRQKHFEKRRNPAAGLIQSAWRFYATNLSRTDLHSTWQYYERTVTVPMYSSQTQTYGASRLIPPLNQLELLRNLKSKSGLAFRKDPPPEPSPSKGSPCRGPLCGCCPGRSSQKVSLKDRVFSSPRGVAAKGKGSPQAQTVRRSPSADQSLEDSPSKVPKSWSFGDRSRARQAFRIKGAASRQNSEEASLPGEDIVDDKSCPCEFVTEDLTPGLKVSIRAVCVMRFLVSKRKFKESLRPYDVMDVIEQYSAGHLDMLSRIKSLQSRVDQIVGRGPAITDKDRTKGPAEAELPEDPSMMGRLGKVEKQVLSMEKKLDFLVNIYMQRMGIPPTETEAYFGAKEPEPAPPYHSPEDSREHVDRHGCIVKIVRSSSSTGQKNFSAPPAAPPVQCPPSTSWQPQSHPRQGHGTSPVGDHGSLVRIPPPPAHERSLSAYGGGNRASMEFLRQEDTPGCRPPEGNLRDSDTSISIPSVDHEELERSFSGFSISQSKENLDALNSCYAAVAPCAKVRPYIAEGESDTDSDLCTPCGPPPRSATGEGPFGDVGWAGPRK
Experimental: (§1) Cell culture: Chinese hamster ovary (CHO) cell-line cells with a constitutive expression of human Kv7.2/3 channels (B'SYS GmbH, Switzerland) were cultured in F-12 nutrient mixture (Biological Industries) supplemented with 10% fetal bovine serum (Biological Industries) and 1% penicillin-streptomycin (Biological Industries) in a humidified 5% CO2 incubator at 37° C. To maintain the stability of human Kv7.2/7.3 expression antibiotic selection was added (Puromycin 5 μg/ml).
High content screen (HCS) using FLIPR Potassium Assay Kit: A FLIPR Potassium Assay Kit (R8222 FLIPR Potassium Assay Explorer Kits, Molecular Devices) was used with the CHO/hKv7.2/3 cell line to screen molecules against the hKv7.2/7.3 ion channel target. The assay exploits the permeability of thallium ions (Tl+) through potassium (K+) channels. In this assay, Tl+ indicator dye is used to produce a bright fluorescent signal upon the binding to Tl+ conducted through the potassium channels. The intensity of the Tl+ signal is proportional to the number of potassium channels in the open state. Therefore, it provides a functional indication of the potassium channel activity. To activate the voltage-gate potassium channels, the cells were stimulated with a mixture of K+ and Tl+ to depolarize the cell membrane. The fluorescence increase in the assay represents the influx of Tl+ into the cell specifically through the potassium channel, providing a functional read-out of hKv7.2/3 activity using a fluorescent plate reader coupled with injectors used to activate the channels.
According to optimization process to achieve uniform and consistent screening conditions the following protocol was established: Cells were seeded in 384-well, black-walled, clear-bottomed Greiner #781091, at a density of 5000 cells per well 24 hours before the assay conductance and incubated overnight in their normal growth medium. On the experiment day the medium was replaced with HBSS, HEPES, and the test compound/vehicle (0.2% DMSO). Dye solution (prepared according to the manufacturer) was added to the plates, which were incubated for 1.5 h light-protected in room temperature. Tecan Spark reader plate injectors were primed with Tl+(1 mM Tl2SO4) or Tl++K+(1 mM Tl2SO4; 5 mM K2SO4) for channel activation and data correction. […] To calculate EC50 values, the data was fitted to sigmoidal regression using Prism GraphPad. The fitting was constrained to a minimum of 1 and a maximal response of about 3.6 unless a different maximal response could be clearly identified.

Kinetic solubility = type: physicochemical; settings: Table 1; for solubility kinetic: hhbs buffer, aqueous buffer, read-out: Kinetic Sol.
Experimental: Solubility measurements were performed prior to each in vitro assay to ensure accurate dose response and reproducibility. Briefly, each compound was dissolved to 60 mM in DMSO and calibration curve was performed from 1.5-200 μM using absorbance spectra analysis and determination of λmax. Calibration curve served as the readout for all following assays. The 60 mM stock solution was used to make a 120 μM target concentration of 0.2% DMSO in the appropriate buffer of the in vitro related assay (i.e. HHBS buffer). Solubilized compounds were vortex for 10 minutes followed by centrifugation for 15 minutes in 5000 RPM and the supernatant was recovered for absorbance spectra analysis between 200-400 nm.

[1] = Log D, 1-octanol/buffer shake flask; type: physicochemical; settings: pH 7.4
Experimental: The Log D assay was a miniaturized 1-octanol/buffer shake flask method followed by LC/MS/MS analysis, as follows.
The test compounds or control compounds Nadolol, Chlorpromazine Hydrochloride and Propranolol Hydrochloride were dissolved in 100% DMSO to obtain 10 mM solutions, which were transferred to 96-well polypropylene cluster tubes; 2 μL/well. 1-octanol saturated with 0.1 M phosphate buffer (149 μL/well) and 0.1 M phosphate buffer saturated with 1-octanol (149 μL/well) were added to the tubes, respectively, and each tube was vigorously mixed for 2 minutes and then shaked at a speed of 800 rpm at room temperature for 1 hour, followed by centrifugation at 4000 rpm for 5 minutes at room temperature. Thereafter, for the test compounds and the Chlorpromazine Hydrochloride and Propranolol Hydrochloride, the sample of the buffer layer was diluted by a factor of 50-fold and the sample of 1-octanol layer was diluted by a factor of 2000-fold with internal standard (IS) solution. For Nadolol, the sample of the buffer layer was diluted by a factor of 1000-fold and the sample of 1-octanol layer was diluted by a factor of 400-fold with internal standard (IS) solution. The samples were analyzed using a triple quadrupole mass spectrometer. Peak areas were corrected by dilution factors and embedded internal standard, and the ratio of the corrected peak areas was used to calculate the Log D value. The Log D value for each compound will be calculated by the following equation: […]

[2] = Human liver microsome metabolic stability; type: in vitro ADME; settings: human liver microsomes; for microsomal CLint at 1 µM: read-out: HLM Clint; for HLM Clint: 1 µM
Description: Liver microsomes which are subcellular particles derived from endoplasmic reticulum of hepatic cells were used for evaluating the tested compounds. These particles are rich in drug metabolizing enzymes, including the cytochrome p-450 family. Liver microsomes are a recommended test system for various in vitro drug metabolism and pharmacokinetics (DMPK) studies. CLint values lower than […] are considered suitable for drug development.
Liver Microsome Metabolic Stability Assay (NADPH): The liver microsome stability assay was evaluated through pre-incubation with HLMs. A liver microsome mixture (pooled from multiple donors) at a concentration of 0.5 mg/mL, and the test compound at a concentration of 1 μM, were warmed in the presence of a NADPH regenerating system (about 1.0 mM) at 37° C. Positive controls, including testosterone (a CYP3A4 substrate), propafenone (a CYP2D6 substrate), and diclofenac (a CYP2C9) substrate, were concurrently incubated with the HLMs, in the presence of the NADPH regenerating system (1.0 mM). Samples were extracted during incubation at multiple intervals: 0, 5, 15, 30, 45 and 60 minutes. To terminate the reactions, the samples were promptly mixed with cooled acetonitrile that included an internal standard (IS). An additional compound was incubated with the HLMs in the absence of the NADPH regeneration system, from which a sample was taken at the 60-minute interval.
The clearance of the test compound in the samples was subsequently analyzed by LC-MS/MS based on the peak area ratios of the analyte to the IS.
The following equation was used to calculate the microsome clearance: […]
Liver weight: 40 grams/kg, 30 grams/kg, 32 grams/kg, 20 grams/kg and 88 grams/kg, for rat, monkey, dog, human and mouse, respectively.

hTRPV1 = molecular target: T2, hTRPV1 (Homo sapiens, UniProt Q8NER1); experiment: TRPV1 HCS, Fluo-8 calcium flux, capsaicin activation, CHO cells expressing hTRPV1; type: cell-based
T2 construct: CDS of NM_080704.4, inserted into the multiple cloning site of pcDNA3.1(+); host or cells: CHO/hKv7.2/3
T2 sequence (Q8NER1 whole entry): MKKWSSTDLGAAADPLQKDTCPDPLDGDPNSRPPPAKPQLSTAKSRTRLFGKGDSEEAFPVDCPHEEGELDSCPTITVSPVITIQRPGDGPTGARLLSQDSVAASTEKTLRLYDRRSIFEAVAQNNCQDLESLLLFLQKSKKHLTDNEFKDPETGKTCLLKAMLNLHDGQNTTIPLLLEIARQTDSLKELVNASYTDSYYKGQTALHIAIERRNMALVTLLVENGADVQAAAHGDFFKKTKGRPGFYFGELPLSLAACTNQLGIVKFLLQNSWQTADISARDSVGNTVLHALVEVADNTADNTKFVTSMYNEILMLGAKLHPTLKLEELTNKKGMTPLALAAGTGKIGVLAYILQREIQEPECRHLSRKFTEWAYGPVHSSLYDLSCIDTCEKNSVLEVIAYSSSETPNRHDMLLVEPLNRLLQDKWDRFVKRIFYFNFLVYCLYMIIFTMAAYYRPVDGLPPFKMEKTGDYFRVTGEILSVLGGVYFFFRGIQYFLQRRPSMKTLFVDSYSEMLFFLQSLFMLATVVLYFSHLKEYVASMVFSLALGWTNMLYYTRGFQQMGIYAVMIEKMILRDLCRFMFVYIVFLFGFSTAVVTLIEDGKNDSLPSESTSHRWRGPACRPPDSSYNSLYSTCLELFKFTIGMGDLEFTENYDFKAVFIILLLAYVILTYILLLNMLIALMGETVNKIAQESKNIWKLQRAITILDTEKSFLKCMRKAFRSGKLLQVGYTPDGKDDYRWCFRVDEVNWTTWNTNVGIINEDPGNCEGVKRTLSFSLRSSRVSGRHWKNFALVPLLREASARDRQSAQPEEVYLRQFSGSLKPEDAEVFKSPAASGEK
Experimental: as §1, with “with” for “with a”, “hTRPV1” for “Kv7.2/3”, “stable expression” for “stability”, “hTRPV1,” for “human Kv7.2/7.3 expression”, “selection (G418 500 μg/ml)” for “selection”, “applied.” for “added (Puromycin 5 μg/ml).”
High content screen (HCS) using Fluo-8 No Wash Calcium flux Assay Kit: Fluo-8 No Wash Calcium Assay Kit (Abcam, ab112129) was used with CHO stably or transiently expressing TRPV1 to screen compounds against the hTRPV1 ion channel target. The cells were pre-loaded with Fluo-8AM which is membrane permeable. The AM groups of the Fluo-8AM were then being cleaved by intracellular esterase, trapping the Fluo8 in the cell. […] The relative fluorescence signal was calculated following background subtraction, comparing the fluorescence at each time point to its maximal level measured following Ionomycin application in the end.
According to optimization process to achieve uniform and consistent screening condition of molecules the following protocol was established: Cells were seeded in 384-well, black-walled, clear-bottomed, at a density of 5,000 cells per well 24 h before the assay conductance and incubated overnight in their normal growth medium. On the experiment day the medium was replaced in each well with HBSS, HEPES, and compound/vehicle (0.2% DMSO). Dye solution (prepared according to the manufacturer) was added to the wells and plates are incubated for 1.5 h light-protected in room temperature. The Tecan Spark plate reader injectors were then primed with capsaicin and Ionomycin for channel activation and data normalization, respectively. […] To calculate IC50 values, the data was fitted to sigmoidal regression line using Prism GraphPad. The fitting was constrained to a minimum of 0 and a maximal response of about 1 unless a different maximal response could be identified.

hERG = hERG (Homo sapiens, UniProt Q12809); experiment: hERG HCS, FLIPR potassium assay, CHO/hERG; type: cell-based; design: host or cells: CHO; settings: Table 1; for IC50: read-out: hERG IC50; for hERG IC50 (inhibition in parentheses): at highest concentration shown
Chain of hERG (Q12809 whole entry): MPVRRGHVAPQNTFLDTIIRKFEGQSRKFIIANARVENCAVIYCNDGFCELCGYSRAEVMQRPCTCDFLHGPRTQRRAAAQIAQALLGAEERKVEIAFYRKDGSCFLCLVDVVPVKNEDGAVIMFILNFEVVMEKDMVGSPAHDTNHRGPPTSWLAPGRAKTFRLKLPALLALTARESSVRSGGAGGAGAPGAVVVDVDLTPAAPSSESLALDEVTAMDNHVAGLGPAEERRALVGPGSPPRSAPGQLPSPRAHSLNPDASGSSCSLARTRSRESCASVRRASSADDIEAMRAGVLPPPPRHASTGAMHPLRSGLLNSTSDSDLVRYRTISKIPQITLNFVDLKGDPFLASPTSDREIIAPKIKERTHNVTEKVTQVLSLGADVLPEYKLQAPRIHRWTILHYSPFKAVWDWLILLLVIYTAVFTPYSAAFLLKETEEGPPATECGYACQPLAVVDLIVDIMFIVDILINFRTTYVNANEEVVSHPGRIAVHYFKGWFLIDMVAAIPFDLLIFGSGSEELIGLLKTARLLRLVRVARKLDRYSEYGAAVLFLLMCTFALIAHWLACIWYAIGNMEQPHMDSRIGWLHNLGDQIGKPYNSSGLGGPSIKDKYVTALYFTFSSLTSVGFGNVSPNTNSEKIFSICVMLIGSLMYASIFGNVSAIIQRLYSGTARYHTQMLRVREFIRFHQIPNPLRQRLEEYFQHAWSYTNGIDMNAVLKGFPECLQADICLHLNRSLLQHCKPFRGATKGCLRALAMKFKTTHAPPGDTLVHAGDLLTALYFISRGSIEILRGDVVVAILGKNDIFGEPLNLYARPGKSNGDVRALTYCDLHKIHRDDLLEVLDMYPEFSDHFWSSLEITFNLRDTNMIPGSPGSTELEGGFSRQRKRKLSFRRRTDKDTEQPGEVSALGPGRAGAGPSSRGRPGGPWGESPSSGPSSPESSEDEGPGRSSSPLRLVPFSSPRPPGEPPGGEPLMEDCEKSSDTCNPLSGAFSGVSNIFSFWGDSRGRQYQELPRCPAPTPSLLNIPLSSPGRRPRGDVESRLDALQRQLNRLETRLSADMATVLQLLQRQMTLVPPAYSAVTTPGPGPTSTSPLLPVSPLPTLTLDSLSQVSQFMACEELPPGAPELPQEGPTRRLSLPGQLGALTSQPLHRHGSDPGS
Experimental: as §1, with “hERG” for “Kv7.2/3”, “the hERG expression” for “the”, “the CHO cell line, antibiotics” for “human Kv7.2/7.3 expression antibiotic”, “selection (G418 […] and Hygromycin 500)” for “selection”, “applied.” for “added (Puromycin 5 μg/ml).”
FLIPR Potassium Assay Kit: The FLIPR Potassium Assay Kit (R8222 FLIPR Potassium Assay Explorer Kits, Molecular Devices) was used with CHO/hERG cell line, for screening compounds against the hERG ion-channel off-target, as detailed hereinabove.
According to optimization process, to achieve a uniform and consistent screening condition of molecules, the following protocol was established: Cells were seeded in 384-well, black-walled, clear-bottomed, at a density of 7,500 cells per well 24 hours before the assay conductance and incubated overnight in their normal growth medium. On the experiment day the medium was replaced with HBSS, HEPES, and the tested compound/vehicle (0.2% DMSO). Dye solution (prepared according to the manufacturer) was added to the wells and plates were incubated for 1.5 hour light-protected in room temperature. The Tecan Spark plate-reader injectors were primed with Tl+(1 mM Tl2SO4) or Tl++K+(1 mM Tl2SO4; 10 mM K2SO4) for channel activation and data correction. […]. To calculate IC50 values, the data was fitted to sigmoidal regression using Prism GraphPad.

[3] = 1-octanol/phosphate buffer, read-out: LogD
[4] = cells expressing TRPV1, read-out: TRPV1 IC50

Compound | EC50 (hKv7.2/3) | solubility kinetic (Kinetic solubility) | logD [1, 3] | microsomal CLint at 1 µM [2] | IC50 (hTRPV1; [4]) | also measured
CC(C)c1cc(Cl)cc(Cl)c1C(=O)c1ccc(F)c(CC(=O)NCC2(O)CC2)c1 [Compound 573] | 7 µM | 24 µM (≈ 10.5 µg/mL) | 4.34 | 441 µL/min/mg | 3 µM | –
Cc1cn(-c2ccc(F)c(CC(=O)NCCOCCOCC(C)(C)O)c2)c2c(Cl)cc(Cl)cc12 [Compound 541] | 4.7 µM | – | – | – | 3.2 µM | Kinetic Sol. (Kinetic solubility): 2; logD [1]: 4.78; HLM Clint [2]: 772.2 µL/min/mg
O=C(Cc1cncc(-n2cc(Cl)c3cc(Cl)cc(Cl)c32)c1)N[C@H]1COC[C@@H]1O [Compound 663] | 5.9 µM | 26 µM (≈ 11.5 µg/mL) | 3.52 | 53.6 µL/min/mg | – | –
CC(C)c1cc(Cl)cc(Cl)c1C(O)c1ccc(F)c(CC(=O)NCC(C)(C)O)c1 (centres unmarked) [Compound 417] | 5.6 µM | – | – | 89.1 µL/min/mg | 26.6 µM | IC50 (hERG): > 2.5 µM; hERG IC50 (inhibition in parentheses) (hERG): 0%
CC(C)c1cc(Cl)cc(Cl)c1Sc1ccc(F)c(CC(=O)N[C@H]2C[C@H](O)C2)c1 [Compound 480] | – | – | – | – | – | IC50 (hTRPV1): 1.4 µM
CC(C)c1cc(Cl)cc(Cl)c1C(O)c1ccc(F)c(CC(=O)NCC2(O)CCC2)c1 (single isomer, unassigned) [Compound 533p1] | – | – | – | – | – | Kv7.2/3 activation (words) (hKv7.2/3): lower; Kv7.2/3 activation (words) (hKv7.2/3; listed as 533P1): primarily activation of Kv7.2/3; TRPV1 modulation (words) (hTRPV1): inhibits hTRPV1; TRPV1 modulation (words) (hTRPV1; listed as 533P1): TRPV1 inhibition
Cc1cn(-c2ccc(F)c(CC(=O)NCCO)c2)c2c(Cl)cc(Cl)cc12 [Compound 552] | 12 µM | – | – | – | 1 µM | Kinetic Sol. (Kinetic solubility): 5; logD [1]: 4.77; HLM Clint [2]: 27.2 µL/min/mg
COC[C@@H](CO)NC(=O)Cc1cc(Sc2c(Cl)cc(Cl)cc2C(C)C)ccc1F [Compound 414] | 1.8 µM | – | – | 686 µL/min/mg | 1.1 µM | IC50 (hERG): > 2.5 µM; hERG IC50 (inhibition in parentheses) (hERG): 0%; IC50 (hTRPV1; Table 2, read-out: Experimental IC50): 1.1 µM
O=C(Cc1cncc(-n2cc(Cl)c3cc(Cl)cc(Cl)c32)c1)N[C@@H]1COC[C@@H]1O [Compound 662] | 8 µM | 6 µM (≈ 2.64 µg/mL) | 3.49 | 38.1 µL/min/mg | – | TRPV1 IC50 (hTRPV1; cells expressing TRPV1): agonist
O=C(Cc1cncc(-n2cc(Cl)c3cc(Cl)cc(Cl)c32)c1)NCCO [Compound 649] | 5.2 µM | 10 µM (≈ 3.99 µg/mL) | 4.19 | 27.3 µL/min/mg | 3.3 µM | –
CC(C)c1cc(Cl)cc(Cl)c1C(=O)c1ccc(F)c(CC(=O)NCC2(O)CCC2)c1 [Compound 569] | 3 µM | 27 µM (≈ 12.2 µg/mL) | 4.47 | 120 µL/min/mg | 10 µM | –
